The target in data set [1] is T1, S-adenosylmethionine synthase isoform type-2 (Homo sapiens, UniProt P31153). The experiment in a line: Inhibition of recombinant human MAT2A expressed in baculovirus infected Sf9 cells assessed as S-adenosyl methionine production using L-methionine as substrate preincubated for 60 mins followed by substrate addition and measured after 60 mins in presence of ATP relative to control.
Target sequence in this assay (P31153 whole entry, looked up, canonical isoform): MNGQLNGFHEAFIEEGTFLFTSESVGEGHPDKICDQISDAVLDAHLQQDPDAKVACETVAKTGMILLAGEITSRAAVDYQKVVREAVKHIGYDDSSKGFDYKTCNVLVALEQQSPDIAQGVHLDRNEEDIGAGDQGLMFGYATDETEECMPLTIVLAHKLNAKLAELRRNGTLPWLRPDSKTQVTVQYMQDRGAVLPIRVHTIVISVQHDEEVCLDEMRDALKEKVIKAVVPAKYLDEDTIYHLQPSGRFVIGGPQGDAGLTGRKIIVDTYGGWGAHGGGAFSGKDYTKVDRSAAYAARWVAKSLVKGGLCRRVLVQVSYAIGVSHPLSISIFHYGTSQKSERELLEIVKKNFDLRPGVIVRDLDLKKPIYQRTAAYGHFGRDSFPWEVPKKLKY

For data set [2], the target named is T1, S-adenosylmethionine synthase isoform type-2. Nature of the data set: Inhibition of recombinant human MAT2A expressed in baculovirus infected Sf9 cells assessed as S-adenosyl methionine production using L-methionine as substrate preincubated for 60 mins followed by substrate addition and measured after 60 mins in presence of ATP.
Target sequence in this assay (P31153 whole entry, canonical isoform): as the sequence (P31153 whole entry, looked up, canonical isoform) above
The target is the same in data set [3]. The experiment in a line: Inhibition of […] in MTAP-null human HCT-116 cells after 72 hrs by LC-MS/MS analysis. The data set is classed as cell-based, HCT116-MTAP null.
Target sequence in this assay (P31153 whole entry, canonical isoform): as the sequence (P31153 whole entry, looked up, canonical isoform) above
Data set [4] shares this target. The experiment in a line: Inhibition of […] in MTAP-null human HCT-116 cells after 72 hrs by LC-MS/MS analysis relative to control. The data set is classed as cell-based. The conditions noted are these: HCT116-MTAP null.
Target sequence in this assay (P31153 whole entry, looked up, canonical isoform): as above
A short description of data set [5]: In vivo inhibition of MAT2A in human HCT116-MTAP null cells xenografted po dosed nu/nu mouse model assessed as plasma exposure required for reduction in tumor SAM level. The data set is classed as functional. Background: A xenograft is tissue or cells of one species grown in another, often human tumour cells in immunodeficient mice.
Data set [6] relates to KP-4. Nature of the data set: Antitumor activity against human KP-4 cells xenografted in CB17-SCID mouse assessed as tumor growth inhibition […] at 30 to 60 mg/kg, po QD for 13 days. The data set is classed as functional, organism-based. The following applies: dose 30-60 mg/kg, time 13.0 day.
Data set [7] deals with T2, PXR (NR1I2) (Homo sapiens, UniProt O75469).
T2 sequence (O75469 whole entry): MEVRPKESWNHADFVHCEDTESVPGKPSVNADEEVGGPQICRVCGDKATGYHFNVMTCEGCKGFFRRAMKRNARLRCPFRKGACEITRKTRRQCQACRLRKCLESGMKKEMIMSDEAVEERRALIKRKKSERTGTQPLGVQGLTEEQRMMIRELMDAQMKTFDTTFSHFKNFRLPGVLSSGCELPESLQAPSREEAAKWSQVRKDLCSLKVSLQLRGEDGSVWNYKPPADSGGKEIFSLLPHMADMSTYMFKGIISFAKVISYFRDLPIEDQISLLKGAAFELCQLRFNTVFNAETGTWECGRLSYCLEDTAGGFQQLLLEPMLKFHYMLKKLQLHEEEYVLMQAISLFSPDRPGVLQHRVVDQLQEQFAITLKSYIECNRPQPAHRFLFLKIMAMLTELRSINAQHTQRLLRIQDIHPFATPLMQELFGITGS
Nature of the data set: Transactivation of human PXR transfected in HepG2 cells assessed as CYP450 induction by measuring fold activation at 10 uM by luciferase reporter gene assay. The data set is classed as ADME, cell-based. The following applies: HepG2 cells transfected with human PXR, read-out: FC.

A short description of data set [8]: Ratio of drug concentration in brain to plasma of mouse at 10 mg/kg, po measured at 1 to 4 hrs post dose. The conditions noted are these: brain and plasma, time 1-4 hrs. Format: ADME, organism-based.
Data set [9] can be described thus: Inhibition of MAT2A in human HCT116-MTAP null cells xenografted po dosed nu/nu mouse model assessed as plasma exposure required for reduction in periphery SAM level. The data set is classed as functional.
In data set [10] the test system is HCT116-MTAP null. Nature of the data set: Antitumor activity against human HCT116-MTAP null cells xenografted in nu/nu mouse assessed as inhibition of tumor […] at 10 to 30 mg/kg, po QD for 21 days. The data set is classed as functional, organism-based. The following applies: dose 10-30 mg/kg, time 21.0 day.

pIC50: −log10 of the molar value. Active and inactive are the calls of the source. The calls are words filed in the database; no cut-off is given here.

For the molecule `COc1ccc(-n2cc3cnc(N(C)CC(F)(F)F)nc3c(-c3ccc(Br)cc3)c2=O)cc1`, the Imax in data set [1] was 71%. Also, the pIC50 in data set [2] was 5.48.
For `COc1ccc(-n2cc3cnc(NCC(F)(F)F)nc3c(-c3ccc(Cl)cc3)c2=O)cc1`, in [3], the pIC50 was 6.95. The Imax in data set [4] was determined as 83%.
Consider `CCOc1ccc2cn(-c3ccc4nn(C)cc4c3)c(=O)c(-c3ccc(Cl)cc3)c2n1`, for which the fIC50 in data set [5] worked out at 9.8 nM. Also, in data set [3], the pIC50 was 7.64. Besides, the Imax in data set [4] was found to be 89%.
Molecule `Cn1cc2cc(-n3cc4ccc(OCC(F)(F)F)nc4c(-c4ccc(Cl)cc4)c3=O)ccc2n1` had a pIC50 in data set [3] of 7.49. This molecule had an Imax in [4] of 82%.
Turning to `COc1ccc(-n2cc3cnc(NCCC(F)(F)F)nc3c(-c3ccc(Br)cc3)c2=O)cc1`, the Imax in data set [1] amounted to 69%. Further, in data set [2], the pIC50 was 6.49.
Taken in the same sequence, the figures for `COc1ccc(-n2cc3cnc(NCC4CC4)nc3c(-c3ccc(Br)cc3)c2=O)cc1` were 88% and 7.27.
Molecule `CCNc1ccc2cn(-c3ccc4nn(C)cc4c3)c(=O)c(-c3ccc(Cl)cc3)c2n1` gave a pIC50 in [3] of 8.00. The molecule also yielded an Imax in data set [4] of 81%.
Consider `COc1ccc(N2Cc3cnc(NCC4CC4)nc3C3(CCN(Cc4cc[nH]c4)C3)C2=O)cc1` (configuration not stated), for which, in data set [1], the Imax is 34%. Moreover, the pIC50 in data set [2] was 5.70.
Taken in the same sequence, the figures for `COc1ccc(N2Cc3cnc(NCC4CC4)nc3C3(CCN(Cc4ccccc4F)C3)C2=O)cc1` (configuration not stated) were 38% and 6.49.
Taken in the same sequence, the figures for `COc1ccc(N2Cc3cnc(NCC4CC4)nc3C3(CCN(Cc4ccsc4)C3)C2=O)cc1` (configuration not stated) were 38% and 6.29.
With `COc1ccc(-n2cc3cnc(NCC(F)(F)F)nc3c(-c3ccc(Br)cc3)c2=O)cc1`, the result in [6] was Active. For the same molecule, the Imax in data set [1] was determined as 94%; in data set [4] it was 84%. Besides, the fIC50 in data set [5] came out at 10.2 nM. In addition, the pIC50 in [3] was 7.47; in data set [2] it was 7.66.
As to `CCNc1ncc2cn(-c3ccc(OC)cc3)c(=O)c(-c3ccc(Br)cc3)c2n1`, in data set [1], the Imax is 91%. The pIC50 in [2] is 7.47.
Taken in the same sequence, the figures for `COc1ccc(N2Cc3cnc(NCC4CC4)nc3C3(CCN(Cc4ccon4)C3)C2=O)cc1` (configuration not stated) were 50% and 6.28.
Turning to `Cn1cnc2ccc(-n3cc4cnc(NCC(F)(F)F)nc4c(-c4ccc(Cl)cc4)c3=O)cc21`, the negative-log IC50 (pIC50) in data set [3] was 7.51. In data set [4], this molecule displayed an Imax of 80%.
Taken in the same sequence, the figures for `O=c1c(-c2ccc(Cl)cc2)c2nc(NCC(F)(F)F)ncc2cn1-c1ccc2ncccc2c1` were 7.10 and 83%.
Taken in the same sequence, the figures for `Cn1cc2cc(-n3cc4ccc(NCC(F)(F)F)nc4c(-c4ccc(Cl)cc4)c3=O)ccc2n1` were 7.96 and 82%.
As to `COc1ccc(N2Cc3cnc(NCC4CC4)nc3C3(CCN(Cc4cn[nH]c4)C3)C2=O)cc1` (configuration not stated), the Imax in [1] amounted to 60%. Also, the pIC50 in data set [2] was 5.11.
Taken in the same sequence, the figures for `COc1ccc(N2Cc3cnc(NCC4CC4)nc3C3(CCN(Cc4cscn4)C3)C2=O)cc1` (configuration not stated) were 62% and 6.21.
Regarding `Cn1cc2cc(-n3cc4ccc(CCC(F)(F)F)nc4c(-c4ccc(Cl)cc4)c3=O)ccc2n1`, the pIC50 in [3] was 7.00. Further, the Imax in data set [4] was determined as 76%.
For the molecule `COc1ccc(N2Cc3cnc(NCC4CC4)nc3C3(CCN(Cc4cnc(N)s4)C3)C2=O)cc1` (configuration not stated), in data set [1], the Imax is 38%. The pIC50 in data set [2] was 6.39.
`COc1ccc(N2Cc3c(C)nc(NCC4CC4)nc3C3(CCN(Cc4ccccc4F)C3)C2=O)cc1` (configuration not stated): in data set [1], the Imax is 50%. In addition, the pIC50 in [2] is 6.60.
Taken in the same sequence, the figures for `COc1ccc(N2Cc3cnc(NCC4CC4)nc3C3(CCN(Cc4cc[nH]n4)C3)C2=O)cc1` (configuration not stated) were 88% and 6.16.
`Cn1cc2cc(-n3cc4ccc(OCC(F)F)nc4c(-c4ccc(Cl)cc4)c3=O)ccc2n1` had a pIC50 in data set [3] of 7.89. The fold induction at 10 µM in data set [7] amounted to 3.8. The molecule also came in with an Imax in data set [4] of 88%.
Turning to `CCCNc1ncc2cn(-c3ccc(OC)cc3)c(=O)c(-c3ccc(Br)cc3)c2n1`, the Imax in data set [1] is 73%. Besides, in data set [2], the pIC50 was 7.32.
On to `Cc1nc2ccc(-n3cc4cnc(NCC(F)(F)F)nc4c(-c4ccc(Cl)cc4)c3=O)cc2n1C`, for which the pIC50 in data set [3] is 7.68. Also, the Imax in data set [4] came out at 80%.
In the case of `Cc1nc(NCC2CC2)nc2c1COCC21CCN(Cc2ccccc2F)C1` (configuration not stated), the Imax in data set [1] amounted to 46%. Moreover, the negative-log IC50 (pIC50) in data set [2] is 5.14.
Consider `O=c1c(-c2ccc(Br)cc2)c2nc(NCC(F)(F)F)ncc2cn1-c1ccc2ncccc2c1`, for which the pIC50 in data set [3] is 7.34. The fold induction at 10 µM in [7] was found to be 5.3. The molecule further yielded an Imax in [4] of 84%. For the same molecule, the Kp in data set [8] was determined as 0.1.
Take `Cn1cc2cc(-n3cc4cnc(NCC(F)(F)F)nc4c(-c4ccc(Cl)cc4)c3=O)ccc2n1`: the fIC50 in [9] came to 2 nM; in [5], 1.8 nM. The molecule further had a pIC50 in [3] of 7.85. In data set [4], the Imax came to 80%. The outcome in [10] was Active.

One may read the pIC50 as the negative decadic logarithm of the IC50, by convention in mol/L. A word on the Kp: it is the ratio of the level in a tissue or fluid to that in plasma or blood.

The values above are taken from ChEMBL document CHEMBL5154802, “Leveraging Structure-Based Drug Design to Identify Next-Generation MAT2A Inhibitors, Including Brain-Penetrant and Peripherally Efficacious Leads” (J Med Chem, 2022).
